According to patent US20220370385A1, “COMPOSITIONS FOR USE IN INHIBITING SRC KINASE AND TREATING AND PREVENTING ASSOCIATED DISORDERS” (Enzene Biosciences Ltd., priority 2019, published 2022):

Assay: Maximum tolerated dose study, oral gavage
Assay type: in vivo
Details: single oral gavage
Method: A maximum tolerated dose (MTD) study was carried out with E05. In MTD study, group of 3 male and 3 female rats were dosed at 175 (group 1), 550 (group 2), 1750 (group 3) and 2000 (group 4) mg/kg b. wt.

O=C(O)CCc1ccc(O)c(O)c1 [E05, 3-(3,4-Dihydroxyphenyl) propanoic acid]
0: Morbidity on Experimental Day 1 (Female G1 175 mg/kg b. wt.) | Morbidity on Experimental Day 2 (Female G1 175 mg/kg b. wt.) | Morbidity on Experimental Day 3 (Female G1 175 mg/kg b. wt.) | Morbidity on Experimental Day 4 (Female G1 175 mg/kg b. wt.) | Mortality on Experimental Day 1 (Female G1 175 mg/kg b. wt.) | Mortality on Experimental Day 2 (Female G1 175 mg/kg b. wt.) | Mortality on Experimental Day 3 (Female G1 175 mg/kg b. wt.) | Mortality on Experimental Day 4 (Female G1 175 mg/kg b. wt.) | Morbidity on Experimental Day 1 (Female G2 550 mg/kg b. wt.) | Morbidity on Experimental Day 2 (Female G2 550 mg/kg b. wt.) | Morbidity on Experimental Day 3 (Female G2 550 mg/kg b. wt.) | Morbidity on Experimental Day 4 (Female G2 550 mg/kg b. wt.) | Mortality on Experimental Day 1 (Female G2 550 mg/kg b. wt.) | Mortality on Experimental Day 2 (Female G2 550 mg/kg b. wt.) | Mortality on Experimental Day 3 (Female G2 550 mg/kg b. wt.) | Mortality on Experimental Day 4 (Female G2 550 mg/kg b. wt.) | Morbidity on Experimental Day 1 (Female G3 1750 mg/kg b. wt.) | Morbidity on Experimental Day 2 (Female G3 1750 mg/kg b. wt.) | Morbidity on Experimental Day 3 (Female G3 1750 mg/kg b. wt.) | Morbidity on Experimental Day 4 (Female G3 1750 mg/kg b. wt.) | Mortality on Experimental Day 1 (Female G3 1750 mg/kg b. wt.) | Mortality on Experimental Day 2 (Female G3 1750 mg/kg b. wt.) | Mortality on Experimental Day 3 (Female G3 1750 mg/kg b. wt.) | Mortality on Experimental Day 4 (Female G3 1750 mg/kg b. wt.) | Morbidity on Experimental Day 1 (Female G4 2000 mg/kg b. wt.) | Morbidity on Experimental Day 2 (Female G4 2000 mg/kg b. wt.) | Morbidity on Experimental Day 3 (Female G4 2000 mg/kg b. wt.) | Morbidity on Experimental Day 4 (Female G4 2000 mg/kg b. wt.) | Mortality on Experimental Day 1 (Female G4 2000 mg/kg b. wt.) | Mortality on Experimental Day 2 (Female G4 2000 mg/kg b. wt.) | Mortality on Experimental Day 3 (Female G4 2000 mg/kg b. wt.) | Mortality on Experimental Day 4 (Female G4 2000 mg/kg b. wt.) | Morbidity on Experimental Day 1 (Male G1 175 mg/kg b. wt.) | Morbidity on Experimental Day 2 (Male G1 175 mg/kg b. wt.) | Morbidity on Experimental Day 3 (Male G1 175 mg/kg b. wt.) | Morbidity on Experimental Day 4 (Male G1 175 mg/kg b. wt.) | Mortality on Experimental Day 1 (Male G1 175 mg/kg b. wt.) | Mortality on Experimental Day 2 (Male G1 175 mg/kg b. wt.) | Mortality on Experimental Day 3 (Male G1 175 mg/kg b. wt.) | Mortality on Experimental Day 4 (Male G1 175 mg/kg b. wt.) | Morbidity on Experimental Day 1 (Male G2 550 mg/kg b. wt.) | Morbidity on Experimental Day 2 (Male G2 550 mg/kg b. wt.) | Morbidity on Experimental Day 3 (Male G2 550 mg/kg b. wt.) | Morbidity on Experimental Day 4 (Male G2 550 mg/kg b. wt.) | Mortality on Experimental Day 1 (Male G2 550 mg/kg b. wt.) | Mortality on Experimental Day 2 (Male G2 550 mg/kg b. wt.) | Mortality on Experimental Day 3 (Male G2 550 mg/kg b. wt.) | Mortality on Experimental Day 4 (Male G2 550 mg/kg b. wt.) | Morbidity on Experimental Day 1 (Male G3 1750 mg/kg b. wt.) | Morbidity on Experimental Day 2 (Male G3 1750 mg/kg b. wt.) | Morbidity on Experimental Day 3 (Male G3 1750 mg/kg b. wt.) | Morbidity on Experimental Day 4 (Male G3 1750 mg/kg b. wt.) | Mortality on Experimental Day 1 (Male G3 1750 mg/kg b. wt.) | Mortality on Experimental Day 2 (Male G3 1750 mg/kg b. wt.) | Mortality on Experimental Day 3 (Male G3 1750 mg/kg b. wt.) | Mortality on Experimental Day 4 (Male G3 1750 mg/kg b. wt.) | Morbidity on Experimental Day 1 (Male G4 2000 mg/kg b. wt.) | Morbidity on Experimental Day 2 (Male G4 2000 mg/kg b. wt.) | Morbidity on Experimental Day 3 (Male G4 2000 mg/kg b. wt.) | Morbidity on Experimental Day 4 (Male G4 2000 mg/kg b. wt.) | Mortality on Experimental Day 1 (Male G4 2000 mg/kg b. wt.) | Mortality on Experimental Day 2 (Male G4 2000 mg/kg b. wt.) | Mortality on Experimental Day 3 (Male G4 2000 mg/kg b. wt.)
